Results on two molecules are retold here after patent US20050053916A1, “Diagnostic for long term response of HBV carrier to 3TC therapy” (priority 2002, published 2005).

The subject of test [1] is serum alanine transaminase (ALT). Description: Biochemical response (serum ALT) in chronic hepatitis B patients on long-term lamivudine therapy. As to conditions: for No. of patients with ALT elevation / No. of patients with Sustained ALT Normalization: outcome summary. The format is in vivo, human. As to the method:
All patients had detectable HBV DNA by polymerase chain reaction (PCR) assay (HBV Monitor, Roche Diagnostics, Inc.) and by solution hybridization assay (Abbott Diagnostics, Inc.) at baseline and for at least 6 months before therapy. […] Patients were negative for hepatitis C, hepatitis D, or human immunodeficiency virus antibodies, and there were no evidences of autoimmune hepatitis. None of the patients were treated with interferon or other antiviral agents, such as famciclovir or adefovir dipovoxil, during the study or within six months before the beginning of lamivudine treatment.
(§1) All patients were followed with monthly clinical examination and routine laboratory tests.
Blood test—An aliquot of serum was collected at each visit and stored at −70° C. until used for analysis.
HBV serologic markers were tested by commercial enzyme immunoassay kits: HBeAg and anti-HBeAg (DiaSorin, Italy), and HBsAg (Abbott Laboratories, Inc.). Serum samples were also evaluated for routine biochemical markers of liver disease, including ALT.
(§2) Definitions—“Responder” patients were classified as attaining both a biochemical and virological response: normalization of ALT values and the absence of serum HBV DNA by Monitor™ PCR in two consecutive determinations during treatment. “Breakthrough” was defined as those patients in who HBV DNA reappeared by Monitor™ PCR assay after an initial antiviral response (serum HBV DNA negative by Monitor™ PCR), eventually associated with an increase of ALT levels greater than 1.5× the upper limit of normal (35 IU/L).

For test [2], the system named is HBV. Description: Virological response (serum HBV DNA, HBV Monitor PCR) in chronic hepatitis B patients on long-term lamivudine therapy. The format is in vivo, human. As to conditions: for virologic breakthrough observed, number of patients: of 12 breakthrough patients.
Source text: All patients had detectable HBV DNA by polymerase chain reaction (PCR) assay (HBV Monitor, Roche Diagnostics, Inc.) and by solution hybridization assay (Abbott Diagnostics, Inc.) at baseline and for at least 6 months before therapy. […] Patients were negative for hepatitis C, hepatitis D, or human immunodeficiency virus antibodies, and there were no evidences of autoimmune hepatitis.
as §1
Serum HBV DNA for the evaluation of response to treatment was analyzed by the HBV Monitor™ assay (Roche Diagnostic, Inc.) with a detection limit of 100 copies/ml, and a solution hybridization assay (Abbott Laboratories, Inc.) with a detection limit of 10 pg/ml.
as §2

Test [3] relates to HBV. As to conditions: after 16 weeks or more of treatment; HBeAg positive candidates; cited from earlier work.
Setting [4] is: individual breakthrough (BK) patients, row order Pt #4, 5, 8, 10, 12, 13, 16, 17, 19, 20, 24, 26, 27-53 months of treatment.
Setting [5] is: individual non-responder (NR) patients, row order Pt #3, 6, 9, 11, 15, 21, 22, 33-47 months of treatment.
Setting [6] is: after a minimum of 27 months of therapy, 26 patients.

“And” between values parts separate entries of the source, which are not always exact repeats. Identical values can stand only once. “Also recorded” adds a separate entry of the source.

For the molecule `Nc1ccn([C@@H]2CS[C@H](CO)O2)c(=O)n1` [lamivudine], in test [1] (by week 24 of treatment, 13 of 26 patients, lamivudine orally 100 mg daily), the “patients in whom serum ALT normalized” value was 50%. Also, the “ALT (IU/L), treatment (last follow up)” value in test [1] (setting [4]) is 9 IU/L (2×) and 5 IU/L (3×) and 21 IU/L and 75 IU/L and 81 IU/L and 51 IU/L and 80 IU/L and 2 IU/L and 4 IU/L; in test [1] (setting [5]) it was 68 IU/L and 37 IU/L and 4 IU/L (2×) and 66 IU/L and 74 IU/L and 85 IU/L; in test [1] (individual responder (R) patients, row order Pt #1, 2, 7, 14, 18, 23, 25, 27-50 months of treatment, upper limit of normal 35 IU/L), 30 IU/L and 24 IU/L (2×) and 20 IU/L and 18 IU/L and 21 IU/L and 16 IU/L. The “No. of patients with ALT elevation” value in test [1] (Breakthrough group (12 pts)) was 5; in test [1] (Non-responder group (7 pts)) it was 7; in test [1] (Responder group (7 pts)) it was 7. Besides, the figures for the “No. of patients with Sustained ALT Normalization” value in test [1] (Breakthrough group (12 pts)), in test [1] (Non-responder group (7 pts)) and in test [1] (Responder group (7 pts)) were 7, 0 and 0, respectively. In addition, the “virologic breakthrough observed, number of patients” value in test [2] (after 12 months of therapy) came out at 6 patients; in test [2] (between 12 and 18 months of therapy), 5 patients. The “patients who were breakthroughs” value in test [2] (setting [6]) amounted to 46%. Also, in test [2] (setting [6]), the “patients who were non-responders” value is recorded as 27%. Besides, the “patients who were responders” value in test [2] (setting [6]) is 27%. Further, the “patients in whom HBV DNA became undetectable” value in test [2] (by week 24 of treatment, 19 of 26 patients, lamivudine orally 100 mg daily) is recorded as 73%. In addition, the “HBV DNA (log10/ml), treatment (last follow up)” value was 5.00 log10/ml and 5.31 log10/ml and 5.17 log10/ml and 6.20 log10/ml and 5.67 log10/ml and 6.62 log10/ml and 5.88 log10/ml and 4.54 log10/ml and 6.08 log10/ml and 7.02 log10/ml and 6.18 log10/ml in test [2] (setting [4]); 4.25 log10/ml and 4.55 log10/ml and 6.11 log10/ml (2×) and 7.28 log10/ml and 5.19 log10/ml and 6.19 log10/ml in test [2] (setting [5]); “ud* (undetectable, limit of detection 1000 copies/ml); also recorded: ud (undetectable, limit of detection 1000 copies/ml)” in test [2] (individual responder (R) patients, row order Pt #1, 2, 7, 14, 18, 23, 25, 27-50 months of treatment). The “No. of Patients (%), Breakthrough” value in test [2] (outcome summary (26 pts)) is on record as 12 (46%). The “No. of Patients (%), Non-responder” value in test [2] (outcome summary (26 pts)) is 7 (27%). The “No. of Patients (%), Responder” value in test [2] (outcome summary (26 pts)) was 7 (27%).

Consider interferon-alpha, for which the “individuals who lose serum HBeAg” value in test [3] is “about 40%”.
